Source: patent publication US20240050580A1, “COMPOSITIONS TARGETING TUMOR ASSOCIATED MACROPHAGES AND METHODS USING SAME” (Rutgers, The State University of New Jersey, priority 2020, published 2024)
Bridge positions count the residues as written; N and C are the ends. Ends that are not written are not given here.

How the values were obtained:
EF43.fgf4 cells = test: Phage/peptide binding to cultured EF43.fgf4 cells (BRASIL cell binding assay); format: cell-based, mouse; details: standard cell binding assay, phage-displayed peptide
Method: (§1) The Biopanning and Rapid Analysis of Selective Interactive Ligands (BRASIL) methodology was used to test binding of phage to cultured cells. For phage binding to the candidate receptors PDIA3 and DBP, individual microtiter wells of 96-well plates were coated overnight (ON) with 1 μg/ml of recombinant proteins, followed by blocking with BSA and incubation with 10^9 TU of insertless phage or […]-phage for 1 hour at room temperature (RT). GST and BSA were used as control proteins. Bound phage were recovered by log-phase infection of host bacteria (200 μl E. coli K91Kan).

[1] = system: CD11b+F4/80+ TAM from EF43.fgf4 mammary tumors; test: Cytokine gene expression by quantitative real-time PCR in cultured TAM; format: cell-based, mouse
Method: Three sets of total RNA (RNeasy Mini Kit, Qiagen) were independently isolated from cultured macrophages, or fresh macrophages isolated directly from tumors. DNA synthesis was performed with the […] Reverse Transcription System (Promega) by using oligodT for reverse transcription. Gene expression was analyzed with the use of Tagman probes (Applied Biosystems) in a 7500 Fast Real-Time PCR System instrument (Applied Biosystems) and three sets of endogenous control genes: 18S and GAPDH and GUSB1. TAM were obtained directly from EF43.fgf4 tumors. Tissue digestion was performed in collagenase A in serum-free DMEM (1 mg/mL) for 20 minutes at 37° C., followed by filtering through 70 μm nylon cell strainers and centrifugation. Macrophages were enriched by magnetic bead separation of CD11b-positive cells (Miltenyi Biotec) and either used for RNA extraction or cultured in 6-well plates containing DMEM (Gibco) supplemented with 20% FBS (Sigma) and 50 ng/ml of M-CSF (R&D Systems). A homogeneous population of adherent macrophages (namely, >99% CD11b+F480+) was obtained after 7 days in culture.

EF43.fgf4 tumors = test: Systemic treatment of EF43.fgf4 tumor-bearing mice with soluble peptide; format: in vivo, mouse
[2] = system: EF43.fgf4-derived mammary fat pad tumors; test: In vivo phage display library selection in EF43.fgf4 tumor-bearing mice; set-up: species or system mouse; details: peptide sequences from third round of in vivo selection
Method: Combinatorial phage display selections in vivo in tumor-bearing mice were performed as described in the literature. In brief, animals received 10^9 TU iv of an unselected phage display random peptide library (displaying the insert CX7C). Tumors and control organs were collected after 24 hours of systemic circulation. For homing of individual phage clones in vivo, tumor-bearing mice were deeply anesthetized with 1-2% isoflurane and received 10^9 TU of targeted phage or insertless control phage, both administered iv side-by-side. Phage particles were recovered from tissue samples by bacterial infection and processed as described in the literature.
A phage display-based approach was used to identify homing peptides that target TAM in TNBC. […] A random phage peptide library was first administered intravenously (iv) in immunocompetent female BALB/c mice with established EF43.fgf4-derived mammary fat pad tumors. Phage particles were recovered from tumors after 24 hours, re-amplified, and subjected to two additional rounds of in vivo selection. […] The four selected peptides were next individually evaluated based on absence of binding to EF43.fgf4 cells in vitro (FIG. 2B). […] In a non-limiting aspect, the peptides […], (SEQ ID NO:3) […] (SEQ ID NO:4), and […] (SEQ ID NO:2) were not studied further.

DBP = target: T1, DBP (Homo sapiens, UniProt P02774); test: Competitive binding of […]-phage and vitamin D forms to DBP; details: wells pre-incubated with 3 nM or 30 nM competitor; P<0.05
T1 construct: GST; purchased Abcam
T1 sequence (P02774 17-474): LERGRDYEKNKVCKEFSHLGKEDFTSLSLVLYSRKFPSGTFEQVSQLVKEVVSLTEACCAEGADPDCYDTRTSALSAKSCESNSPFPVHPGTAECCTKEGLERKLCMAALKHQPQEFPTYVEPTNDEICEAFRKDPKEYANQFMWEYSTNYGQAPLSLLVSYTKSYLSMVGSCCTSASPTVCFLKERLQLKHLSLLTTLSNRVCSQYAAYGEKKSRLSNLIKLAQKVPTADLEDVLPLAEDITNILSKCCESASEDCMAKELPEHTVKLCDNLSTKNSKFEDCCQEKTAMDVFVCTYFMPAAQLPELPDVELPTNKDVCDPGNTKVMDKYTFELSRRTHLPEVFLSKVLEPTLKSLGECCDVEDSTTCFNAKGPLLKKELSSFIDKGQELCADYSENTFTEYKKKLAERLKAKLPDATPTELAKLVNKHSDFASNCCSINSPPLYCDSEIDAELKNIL
Method: as §1

[3] = target: T2, PDIA3 on the surface of tumor associated macrophages (TAM) from EF43.fgf4 mammary tumors (mouse, UniProt P27773 25-505); test: cell-based or functional assay
T2 sequence (looked up): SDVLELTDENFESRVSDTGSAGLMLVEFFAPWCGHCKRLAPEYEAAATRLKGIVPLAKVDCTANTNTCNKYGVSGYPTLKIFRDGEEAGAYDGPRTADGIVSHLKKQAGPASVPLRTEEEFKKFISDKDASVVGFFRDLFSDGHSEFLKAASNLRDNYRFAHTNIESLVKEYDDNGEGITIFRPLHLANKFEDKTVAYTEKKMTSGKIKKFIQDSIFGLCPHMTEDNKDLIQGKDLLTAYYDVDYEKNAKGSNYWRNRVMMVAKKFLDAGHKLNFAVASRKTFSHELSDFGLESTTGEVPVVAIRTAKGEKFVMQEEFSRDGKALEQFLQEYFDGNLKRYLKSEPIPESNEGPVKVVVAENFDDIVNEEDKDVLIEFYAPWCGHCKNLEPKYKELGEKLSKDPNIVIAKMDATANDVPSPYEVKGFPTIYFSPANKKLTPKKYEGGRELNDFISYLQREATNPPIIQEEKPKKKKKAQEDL

[4] = target: T3, recombinant human vitamin D-binding protein (DBP) (human, UniProt P02774 17-474, limits assumed); test: phage binding assay on coated recombinant protein, bound phage counted as TU
T3 construct: Bought from Abcam and coated at 1 ug/ml on microtiter wells; also called recombinant human DBP; DBP-GST
T3 sequence (looked up): T1 sequence (P02774 17-474)
Method: The Biopanning and Rapid Analysis of Selective Interactive Ligands (BRASIL) methodology was used to test binding of phage to cultured cells. […] GST and BSA were used as control proteins. Bound phage were recovered by log-phase infection of host bacteria (200 μl E. coli K91Kan).

## CQRALMIAC (TAM Targeting Peptide) [TAM targeting peptide selected by in vivo phage display]
EF43.fgf4 cells
  binding to EF43.fgf4 cells in vitro: bound to EF43.fgf4 cells

## C=C1/C(=C\C=C2/CCC[C@]3(C)[C@@H]([C@H](C)CCCC(C)(C)O)CC[C@@H]23)C[C@@H](O)C[C@@H]1O [1,25-(OH)2D3, reference compound]
[1]; TAM co-treated with CSSTRESAC peptide and 1,25-(OH)2D3
  effect of co-treatment on the CSSTRESAC-induced cytokine response: abrogated

## CRGFVVGRC (TAM Targeting Peptide) [TAM targeting peptide selected by in vivo phage display]
EF43.fgf4 cells
  binding to EF43.fgf4 cells in vitro: bound to EF43.fgf4 cells

## CSSTRESAC (disulfide 1-9) [TAM targeting peptide from CX7C phage library; modeled with disulfide bridge between Cys1 and Cys9]
EF43.fgf4 tumors; iv, vs unrelated control peptide or vehicle, from one week post initiation, P<0.001
  tumor growth: significant delay in tumor growth
EF43.fgf4 tumors; vs control peptide
  macrophage population in tumor sections (immunohistochemistry, CD163): reduction of the macrophage population
EF43.fgf4 tumors; vs negative control groups
  number of CD11b+IL10highIL12low PDIA3-expressing TAM in tumors (FACS): reduction in the number
[1]
  gene expression of IL-4 and IL-13: undetectable
[1]; relative to control cells
  gene expression of IL-18, IL-12, and INFβ: modest increases or were detected only at background levels
  gene expression of anti-inflammatory cytokines TGF-β1, TGF-β2, IL-10, and arginase-1: much lower increases
EF43.fgf4 cells
  binding to EF43.fgf4 cells in vitro: did not
[2]
  enrichment relative to each of the other three selected peptides: 16 fold

## CRYSAARSC (TAM Targeting Peptide) [TAM targeting peptide selected by in vivo phage display]
EF43.fgf4 cells
  binding to EF43.fgf4 cells in vitro: bound to EF43.fgf4 cells

## C=C1CC[C@H](O)C/C1=C/C=C1\CCC[C@]2(C)[C@@H]([C@H](C)CCCC(C)C)CC[C@@H]12 [vitamin D3, cholecalciferol]
DBP
  effect on binding of CSSTRESAC-phage to immobilized DBP: not

## CSSTRESAC (not fully specified; cysteine pairing not given here) [synthetic CSSTRESAC peptide (SEQ ID NO:1)]
[3]
  gene expression of iNOS2 in cultured CD11b+F4/80+ TAM (real-time quantitative PCR): ~20 fold
  gene expression of the cytokine IL-23 in cultured CD11b+F4/80+ TAM (real-time quantitative PCR): ~10 fold
  gene expression of the pro-inflammatory cytokines IL-1β, TNF-α, and IL-6 in cultured CD11b+F4/80+ TAM (real-time quantitative PCR): ~40 fold

B1: CSSTRESAC-phage (peptide)
peptide: CSSTRESAC
modifications: cysteine pairing not given here; also: displayed on bacteriophage particle
notes: The control was insertless phage; not shown: The phage coat protein and the rest of the phage particle that carry the CX7C insert
[4]
  binding result: binds
